{"source": "patent US20070049611A1", "about": "“Phosphodiesterase 4 inhibitors” (priority 2005, published 2007)", "key": {"[1]": {"test_system": "rats", "experiment": "Passive avoidance in rats, an in vivo test for learning and memory", "conditions": "rat, MK-801 0.1 mg/kg, 24 hours after electric shock, p<0.001", "description": "The test was performed as previously described (Zhang, H.-T., Crissman, A. M., Dorairaj, N. R., Chandler, L. J., and O'Donnell, J. M., Neuropsychopharmacology, 2000, 23, 198-204.). The apparatus (Model E10-16SC, Coulboum Instruments, Allentown, Pa.) consisted of a two-compartment chamber with an illuminated compartment connected to a darkened compartment by a guillotine door. The floor of the darkened compartment consisted of stainless steel rods through which an electric foot-shock could be delivered from a constant current source. All experimental groups were first habituated to the apparatus the day before the start of the experiment. During the training, the rat (Male Spraque-Dawley (Harlan) weighing 250 to 350 g) was placed in the illuminated compartment facing away from the closed guillotine door for 1 minute before the door was raised. The latency for entering the darkened compartment was recorded. After the rat entered the darkened compartment, the door was closed and a 0.5 mA electric shock was administered for 3 seconds. […] The latency for entering the darkened compartment was recorded for up to 180 seconds, at which time the trial was terminated.\n(§1) All data were analyzed by analyses of variance (ANOVA); individual comparisons were made using Kewman-Keuls tests. […]"}, "[2]": {"test_system": "rats", "experiment": "Radial arm maze task in rats, an in vivo test for learning and memory", "conditions": "rat, MK-801 0.1 mg/kg i.p., p<0.01", "description": "The test was performed as previously described (Zhang, H.-T., Crissman, A. M., Dorairaj, N. R., Chandler, L. J., and O'Donnell, J. M., Neuropsychopharmacology, 2000, 23, 198-204.). Five days after initial housing, rats (male Spraque-Dawley (Harlan) weighing 250 to 350 g) were placed in the eight-arm radial maze (each arm was 60×10×12 cm high; the maze was elevated 70 cm above the floor) for acclimation for two days. Rats were then placed individually in the center of the maze for 5 minutes with food pellets placed close to the food wells, and then, the next day, in the wells at the end of the arms; 2 sessions a day were conducted. Next, four randomly selected arms were then baited with one pellet of food each. The rat was restricted to the center platform (26 cm in diameter) for 15 seconds and then allowed to move freely throughout the maze until it collected all pellets of food or 10 minutes passed, whichever came first.\nFour parameters were recorded: 1) working memory errors, i.e., entries into baited arms that had already been visited during the same trial; 2) reference memory errors, i.e., entries into unbaited arms; 3) total arm entries; and 4) the test duration (seconds), i.e., the time spent in the collection of all the pellets in the maze. […]\nas §1"}}, "data": [{"smiles": "C[C@]12N[C@H](Cc3ccccc31)c1ccccc12", "note": "[MK-801]", "values": [{"measurement": "latency for entering the darkened compartment compared to the vehicle", "setting": "[1]", "value": "markedly reduced this latency"}, {"measurement": "frequencies of working and reference memory errors compared to control", "setting": "[2]", "value": "increased the frequencies of both working and reference memory errors"}]}]}
